The numbers were not newly measured in patent US20120289565A1, “COMBINATIONS OF TOLTERODINE AND SALIVARY STIMULANTS FOR THE TREATMENT OF OVERACTIVE BLADDER” (TheraVida, Inc., priority 2011, published 2012), which cites them from elsewhere.

The conditions of the data set: 5 mg of pilocarpine.

For `CC[C@@H]1C(=O)OC[C@@H]1Cc1cncn1C` [pilocarpine], the “time of maximum saliva output after administration” value is listed as “about 30 minutes”.
